Experiments:
Acetyl-CoA carboxylase 2 = Acetyl-CoA carboxylase 2 (Homo sapiens, UniProt O00763); assay: Inhibition of human ACC2 using acetyl-coA as substrate incubated for 60 mins prior to substrate addition measured after 20 mins by malachite green assay
Acetyl-CoA carboxylase 1 = Acetyl-CoA carboxylase 1 (Homo sapiens, UniProt Q13085); assay: Inhibition of human ACC1 using acetyl-coA as substrate incubated for 60 mins prior to substrate addition measured after 20 mins by malachite green assay
[1] = Lipophilicity, log D of the compound at pH 7.4; settings: buffer
[2] = Clearance in human hepatic microsomes assessed per mg protein at 1 uM after 20 mins by HPLC analysis; assay type: ADME, Microsome; settings: liver microsomes, read-out: CLH
[3] = AUC in Crl:CD(SD)(IGS) rat at 3 mg/kg, po; assay type: ADME, organism-based; set-up: dose 3 mg/kg, route oral; settings: plasma
[4] = Oral bioavailability in Crl:CD(SD)(IGS) rat at 3 mg/kg; assay type: ADME, organism-based; settings: in vivo
[5] = Tmax in Crl:CD(SD)(IGS) rat at 3 mg/kg, po; assay type: ADME, organism-based; set-up: dose 3 mg/kg, route oral; settings: in vivo
[6] = Cmax in Crl:CD(SD)(IGS) rat at 3 mg/kg, po; assay type: ADME, organism-based; set-up: dose 3 mg/kg, route oral; settings: in vivo
[7] = Volume of distribution at steady state in Crl:CD(SD)(IGS) rat at 1 mg/kg, iv; assay type: ADME, organism-based; set-up: dose 1 mg/kg, route intravenous; settings: in vivo, read-out: Vdss
[8] = Total clearance in Crl:CD(SD)(IGS) rat at 1 mg/kg, iv; assay type: ADME, organism-based; set-up: dose 1 mg/kg, route intravenous; settings: in vivo
[9] = Mean residence time in Crl:CD(SD)(IGS) rat at 1 mg/kg, iv; assay type: ADME, organism-based; set-up: dose 1 mg/kg, route intravenous; settings: in vivo

Chain of Acetyl-CoA carboxylase 2 (O00763 whole entry): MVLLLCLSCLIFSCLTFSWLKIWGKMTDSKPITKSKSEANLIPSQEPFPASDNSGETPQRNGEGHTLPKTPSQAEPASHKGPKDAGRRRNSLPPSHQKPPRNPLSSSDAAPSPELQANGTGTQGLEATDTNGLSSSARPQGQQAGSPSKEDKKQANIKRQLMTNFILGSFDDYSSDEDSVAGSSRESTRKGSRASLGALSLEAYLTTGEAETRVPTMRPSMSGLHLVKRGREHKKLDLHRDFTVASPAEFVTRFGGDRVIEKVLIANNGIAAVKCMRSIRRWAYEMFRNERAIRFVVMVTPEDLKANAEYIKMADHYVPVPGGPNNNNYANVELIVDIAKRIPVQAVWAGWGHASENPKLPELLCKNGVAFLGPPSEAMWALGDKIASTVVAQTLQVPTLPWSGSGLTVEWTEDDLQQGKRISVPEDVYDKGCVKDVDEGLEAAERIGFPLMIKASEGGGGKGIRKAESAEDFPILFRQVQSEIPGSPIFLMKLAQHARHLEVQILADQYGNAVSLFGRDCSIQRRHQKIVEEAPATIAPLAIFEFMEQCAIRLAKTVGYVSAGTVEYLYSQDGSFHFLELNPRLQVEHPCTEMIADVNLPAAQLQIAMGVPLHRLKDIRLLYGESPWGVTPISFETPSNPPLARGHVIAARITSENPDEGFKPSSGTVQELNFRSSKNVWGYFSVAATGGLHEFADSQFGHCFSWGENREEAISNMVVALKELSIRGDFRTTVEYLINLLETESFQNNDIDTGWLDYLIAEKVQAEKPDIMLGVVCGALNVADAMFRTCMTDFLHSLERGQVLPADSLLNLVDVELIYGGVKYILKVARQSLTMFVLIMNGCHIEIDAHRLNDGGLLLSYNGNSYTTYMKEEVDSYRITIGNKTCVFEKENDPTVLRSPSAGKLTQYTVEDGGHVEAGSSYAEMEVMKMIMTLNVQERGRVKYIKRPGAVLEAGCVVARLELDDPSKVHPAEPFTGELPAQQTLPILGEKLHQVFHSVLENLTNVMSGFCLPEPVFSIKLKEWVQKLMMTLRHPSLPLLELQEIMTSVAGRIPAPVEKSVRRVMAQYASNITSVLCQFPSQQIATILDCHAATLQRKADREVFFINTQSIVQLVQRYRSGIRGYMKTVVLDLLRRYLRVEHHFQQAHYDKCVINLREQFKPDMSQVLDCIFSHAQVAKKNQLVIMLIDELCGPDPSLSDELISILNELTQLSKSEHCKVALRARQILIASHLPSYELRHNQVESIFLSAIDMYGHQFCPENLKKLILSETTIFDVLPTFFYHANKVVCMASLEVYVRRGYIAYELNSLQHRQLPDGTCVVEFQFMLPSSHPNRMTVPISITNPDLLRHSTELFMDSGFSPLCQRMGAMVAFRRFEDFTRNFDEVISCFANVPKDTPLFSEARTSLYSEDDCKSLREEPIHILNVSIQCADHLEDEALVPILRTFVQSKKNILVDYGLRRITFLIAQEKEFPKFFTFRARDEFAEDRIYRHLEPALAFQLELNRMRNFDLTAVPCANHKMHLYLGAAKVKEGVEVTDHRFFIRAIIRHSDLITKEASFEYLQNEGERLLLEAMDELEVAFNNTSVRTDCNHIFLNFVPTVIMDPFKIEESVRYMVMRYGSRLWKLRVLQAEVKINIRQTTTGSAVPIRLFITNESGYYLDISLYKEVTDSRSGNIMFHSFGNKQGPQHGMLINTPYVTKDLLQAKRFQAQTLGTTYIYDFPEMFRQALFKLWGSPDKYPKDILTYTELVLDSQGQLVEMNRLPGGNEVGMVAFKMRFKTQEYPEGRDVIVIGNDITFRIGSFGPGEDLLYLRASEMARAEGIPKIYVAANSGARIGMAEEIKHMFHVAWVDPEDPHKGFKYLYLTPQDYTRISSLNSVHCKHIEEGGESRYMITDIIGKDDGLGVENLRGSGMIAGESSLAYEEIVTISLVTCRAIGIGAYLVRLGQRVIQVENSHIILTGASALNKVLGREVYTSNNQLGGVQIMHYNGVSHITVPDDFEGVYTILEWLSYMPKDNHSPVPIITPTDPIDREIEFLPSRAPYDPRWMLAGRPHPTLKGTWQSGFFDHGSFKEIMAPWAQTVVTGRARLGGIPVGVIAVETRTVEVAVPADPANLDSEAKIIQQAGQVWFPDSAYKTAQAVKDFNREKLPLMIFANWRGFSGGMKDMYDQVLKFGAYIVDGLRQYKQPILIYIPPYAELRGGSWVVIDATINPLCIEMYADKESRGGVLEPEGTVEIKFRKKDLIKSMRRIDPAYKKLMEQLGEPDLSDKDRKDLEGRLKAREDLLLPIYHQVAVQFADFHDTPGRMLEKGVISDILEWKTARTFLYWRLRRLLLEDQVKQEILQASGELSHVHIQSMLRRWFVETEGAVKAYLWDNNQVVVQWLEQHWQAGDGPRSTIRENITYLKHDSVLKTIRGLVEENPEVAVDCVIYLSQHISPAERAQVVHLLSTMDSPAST

Row | Structure (SMILES) | IC50 (Acetyl-CoA carboxylase 2) [nM] | IC50 (Acetyl-CoA carboxylase 1) [nM] | logD [1] | microsomal CLint at 1 µM [2] [µL/min/mg] | AUC [3] [ng·h/mL] | bioavailability [4] [%] | Tmax [5] [min] | Cmax [6] [ng/mL] | Vd [7] [L/kg] | clearance [8] [mL/min/kg] | MRT [9] [min]
1 | CCNC(=O)Nc1sc2ccccc2c1C(=O)N1CCC(N2CCC[C@@]3(C2)CC(C)(C)OC3=O)CC1 |  |  | 3.01 | 230 |  |  |  |  |  |  | 
2 | CCN1C(=O)OC2(CCCN(C3CCN(C(=O)c4c(NC(N)=O)sc5ccccc45)CC3)C2)C1=O (racemic) |  |  | 1.85 | 41 |  |  |  |  |  |  | 
3 | CCNC(=O)Nc1sc2ccccc2c1C(=O)N1CCC(N2CCCC3(CCN(CC)C3=O)C2)CC1 (racemic) | 33 | 350 | 2.62 | 71 |  |  |  |  |  |  | 
4 | CCN1C(=O)CC2(CCCN(C3CCN(C(=O)c4c(NC(N)=O)sc5ccccc45)CC3)C2)C1=O (stereo not given) | 23 | 350 | 2.2 | 64 |  |  |  |  |  |  | 
5 | CCNC(=O)Nc1sc2ccccc2c1C(=O)N1CCC(N2CCCC3(C2)C(=O)N(CC)C(=O)N3C)CC1 (racemic) | 51 | 360 | 2.79 | 190 |  |  |  |  |  |  | 
6 | CCNC(=O)Nc1sc2ccccc2c1C(=O)N1CCC(N2CCCC3(C2)OC(=O)N(CC)C3=O)CC1 (racemic) | 40 | 190 | 2.47 | 98 |  |  |  |  |  |  | 
7 | CCNC(=O)Nc1sc2cccnc2c1C(=O)N1CCC(N2CCCC3(C2)CC(C)(C)OC3=O)CC1 (racemic) | 27 | 150 | 2.45 | 120 |  |  |  |  |  |  | 
8 | CCC1=NC2(CCCN(C3CCN(C(=O)c4c(NC(N)=O)sc5ccccc45)CC3)C2)C(=O)N1CC (racemic) | 43 | 410 | 2.09 | 150 |  |  |  |  |  |  | 
9 | CCNC(=O)Nc1sc2ccccc2c1C(=O)N1CCC(N2CCCC3(CCNC3=O)C2)CC1 (racemic) | 79 | 650 | 2.06 | 35 |  |  |  |  |  |  | 
10 | CCN1C(=O)C2(CCCN(C3CCN(C(=O)c4c(NC(N)=O)sc5ccccc45)CC3)C2)N=C1C (racemic) | 75 | 300 | 1.77 | 60 |  |  |  |  |  |  | 
11 | CCNC(=O)Nc1sc2ccccc2c1C(=O)N1CCC(N2CCCC3(CC(=O)N(CC)C3=O)C2)CC1 (racemic) | 32 | 230 |  | 130 |  |  |  |  |  |  | 
12 | CCNC(=O)Nc1sc2ccccc2c1C(=O)N1CCC(N2CCCC3(CCN(C)C3=O)C2)CC1 (racemic) | 64 | 510 | 2.23 | 45 |  |  |  |  |  |  | 
13 | CCNC(=O)Nc1sc2ccccc2c1C(=O)N1CCC(N2CCCC3(C2)CC(C)(C)OC3=O)CC1 (racemic) |  |  | 3.01 | 180 |  |  |  |  |  |  | 
14 | CCNC(=O)Nc1sc2nccnc2c1C(=O)N1CCC(N2CCCC3(C2)CC(C)(C)OC3=O)CC1 (racemic) | 37 | 150 | 2.32 | 110 |  |  |  |  |  |  | 

Now from value to molecule:

Row | IC50 (Acetyl-CoA carboxylase 2) [nM] | IC50 (Acetyl-CoA carboxylase 1) [nM] | logD [1] | microsomal CLint at 1 µM [2] [µL/min/mg] | AUC [3] [ng·h/mL] | bioavailability [4] [%] | Tmax [5] [min] | Cmax [6] [ng/mL] | Vd [7] [L/kg] | clearance [8] [mL/min/kg] | MRT [9] [min] | Structure (SMILES)
15 | 17 | 80 | 2.43 | 230 |  |  |  |  |  |  |  | CCN1C(=O)C2(CCCN(C3CCN(C(=O)c4c(NC(N)=O)sc5ccccc45)CC3)C2)N=C1C(C)C (racemic)
16 | 16 | 110 | 2.08 | 110 |  |  |  |  |  |  |  | CCNC(=O)Nc1sc2ncccc2c1C(=O)N1CCC(N2CCCC3(C2)CC(C)(C)OC3=O)CC1 (racemic)
17 | 8.5 | 160 | 2.51 | 33 | 1400 | 45 | 30 | 440 | 1.3 | 15.8 | 78 | CNC(=O)Nc1sc2nc(C)ccc2c1C(=O)N1CCC(N2CCC[C@]3(CC(=O)N(C(C)C)C3=O)C2)CC1
18 | 9 | 93 | 2.43 | 45 |  |  |  |  |  |  |  | CCNC(=O)Nc1sc2nc(C)ccc2c1C(=O)N1CCC(N2CCC[C@]3(CCN(C(C)C)C3=O)C2)CC1
19 | 22 | 280 | 2.44 | 110 |  |  |  |  |  |  |  | CCNC(=O)Nc1sc2ccccc2c1C(=O)N1CCC(N2CCCC3(C2)NC(=O)N(CC)C3=O)CC1 (racemic)
20 | 17 | 150 | 2.39 | 26 |  |  |  |  |  |  |  | CCNC(=O)Nc1sc2nc(C)ccc2c1C(=O)N1CCC(N2CCCC3(C2)NC(=O)N(C(C)C)C3=O)CC1 (racemic)
21 | 4.4 | 48 | 2.18 | 90 |  |  |  |  |  |  |  | CNC(=O)Nc1sc2nc(C)ccc2c1C(=O)N1CCC(N2CCC[C@@]3(C2)CC(C)(C)OC3=O)CC1
22 | 15 | 160 | 2.39 | 38 |  |  |  |  |  |  |  | CCNC(=O)Nc1sc2nc(C)ccc2c1C(=O)N1CCC(N2CCCC3(C2)OC(=O)N(C(C)C)C3=O)CC1 (stereo not given)
23 | 18 | 120 | 2.61 | 66 |  |  |  |  |  |  |  | CNC(=O)Nc1sc2ccccc2c1C(=O)N1CCC(N2CCCC3(CCN(C(C)C)C3=O)C2)CC1 (racemic)
24 | 14 | 78 | 2.49 | 79 |  |  |  |  |  |  |  | CCNC(=O)Nc1sc2nc(C)ccc2c1C(=O)N1CCC(N2CCCC3(C2)CC(C)(C)OC3=O)CC1 (racemic)
25 | 15 | 76 | 2.27 | 47 |  |  |  |  |  |  |  | CCNC(=O)Nc1sc2nc(C)ccc2c1C(=O)N1CCC(N2CCCC3(C2)N=C(C)N(C(C)C)C3=O)CC1 (stereo not given)

Source: ChEMBL document CHEMBL2029217, “Design, synthesis, and structure-activity relationships of novel spiro-piperidines as acetyl-CoA carboxylase inhibitors” (Bioorg Med Chem Lett, 2012)
